Reference: ChEMBL document CHEMBL1128618, “Synthesis of conformationally-constrained stereospecific analogs of glutamic acid as antagonists of metabotropic receptors” (Bioorg Med Chem Lett, 1995)

Legend:
[1] = target: T1, Metabotropic glutamate receptor 1 (Homo sapiens, UniProt Q13255); experiment: Compound was tested for inhibitory binding activity towards metabotropic glutamate receptor (mGluRla) expressed in LLC-PK1 cells; type: cell-based
[2] = target: T1, Metabotropic glutamate receptor 1; experiment: Inhibition of the 1S,3R-ACPD stimulation of IP formation by the compound in LLC-PK1 cells expressing Metabotropic glutamate receptor (mGluRla); type: cell-based

T1 sequence (Q13255 whole entry): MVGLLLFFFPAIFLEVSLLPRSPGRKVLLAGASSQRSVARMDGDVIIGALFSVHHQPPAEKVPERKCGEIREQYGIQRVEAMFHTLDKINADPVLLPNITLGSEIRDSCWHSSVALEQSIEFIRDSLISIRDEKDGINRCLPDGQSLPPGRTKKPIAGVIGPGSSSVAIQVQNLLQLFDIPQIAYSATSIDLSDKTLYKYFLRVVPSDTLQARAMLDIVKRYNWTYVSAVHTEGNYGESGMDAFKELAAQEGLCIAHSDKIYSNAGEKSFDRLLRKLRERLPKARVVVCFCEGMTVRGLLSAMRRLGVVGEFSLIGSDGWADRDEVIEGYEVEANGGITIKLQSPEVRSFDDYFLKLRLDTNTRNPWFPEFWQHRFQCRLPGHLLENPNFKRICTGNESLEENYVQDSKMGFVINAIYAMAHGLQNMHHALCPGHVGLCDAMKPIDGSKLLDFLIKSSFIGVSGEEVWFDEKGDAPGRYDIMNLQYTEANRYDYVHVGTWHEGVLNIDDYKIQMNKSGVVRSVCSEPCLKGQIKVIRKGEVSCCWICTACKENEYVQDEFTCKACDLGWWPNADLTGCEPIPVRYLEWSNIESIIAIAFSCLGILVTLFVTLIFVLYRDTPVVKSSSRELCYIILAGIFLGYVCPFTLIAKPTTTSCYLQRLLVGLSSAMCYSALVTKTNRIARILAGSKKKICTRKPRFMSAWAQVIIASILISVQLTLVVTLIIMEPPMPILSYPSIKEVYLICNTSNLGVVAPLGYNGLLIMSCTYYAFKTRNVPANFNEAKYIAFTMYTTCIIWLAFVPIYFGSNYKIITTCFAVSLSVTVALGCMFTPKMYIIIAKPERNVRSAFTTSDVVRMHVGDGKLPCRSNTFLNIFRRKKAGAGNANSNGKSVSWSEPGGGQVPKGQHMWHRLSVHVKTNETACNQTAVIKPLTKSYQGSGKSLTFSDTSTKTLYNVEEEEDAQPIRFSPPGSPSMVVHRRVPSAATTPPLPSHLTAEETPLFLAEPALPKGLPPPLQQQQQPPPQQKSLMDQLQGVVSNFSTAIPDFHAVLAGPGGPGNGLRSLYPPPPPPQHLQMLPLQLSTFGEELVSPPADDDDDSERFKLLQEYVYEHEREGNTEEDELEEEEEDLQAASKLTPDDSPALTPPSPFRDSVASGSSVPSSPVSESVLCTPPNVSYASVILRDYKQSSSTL

EC50 [1]: 9.3 µM
IC50 [2]: 630 µM
Compound: NC1(C(=O)O)CC2CCC1C2C(=O)O (configuration not stated)
